Source: the supplement of paper PMC10307832

Legend:
Experiment in all cases: relative viability (nuclei count vs DMSO), 5 days (fraction); higher = more cells survive
[1] = test system: NCI-H1395
Method in brief: (§1)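 Relative viability is defined as nuclei in treated wells over nuclei in vehicle wells. Duplicate plates were run and medians reported. Lung cancer cell lines in 1536-well plates were dosed by pin tool one day after seeding, with one drug or with a fixed anchor-drug dose plus five library-drug doses (not always all listed) in √10 steps, and nuclei were counted after 5 days.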

[2] = test system: NCI-H2009
Method in brief: as §1

[3] = test system: SW 1573
Method in brief: as §1

[4] = test system: HCC-366
Method in brief: as §1

[5] = test system: NCI-H727
Method in brief: as §1

[6] = test system: NCI-H23
Method in brief: as §1

[7] = test system: NCI-H2228
Method in brief: as §1

[8] = test system: HCC-827
Method in brief: as §1

[9] = test system: CAL-12T
Method in brief: as §1

[10] = test system: LCLC-103H
Method in brief: as §1

[11] = test system: HOP-62
Method in brief: as §1

[12] = test system: NCI-H460
Method in brief: as §1

[13] = test system: NCI-H1355
Method in brief: as §1

[14] = test system: EMC-BAC-2
Method in brief: as §1

[15] = test system: COR-L 105
Method in brief: as §1

[16] = test system: NCI-H1755
Method in brief: as §1

[17] = test system: HARA
Method in brief: as §1

[18] = test system: NCI-H1975
Method in brief: as §1

[19] = test system: NCI-H1915
Method in brief: as §1

[20] = test system: NCI-H1437
Method in brief: as §1

[21] = test system: SK-LU-1
Method in brief: as §1

[22] = test system: A-427
Method in brief: as §1

Work on `O=C(O)c1ccc(-c2c[nH]c3ncc(-c4ccccc4)cc23)cc1C1CCCC1` + O=C(CCCCCCC(=O)Nc1ccccc1)NO [Vorinostat] (partner 1 µM) yielded a relative viability ([1]; first compound 0.04 µM) of 0.7, a relative viability ([1]; first compound 0.1265 µM) of 0.67 and a relative viability ([1]; first compound 0.4 µM) of 0.672. The relative viability ([1]; first compound 1.265 µM) was 0.683, the relative viability ([2]; first compound 0.04 µM) was 0.719 and the relative viability ([2]; first compound 0.1265 µM) was 0.733. For the same compound, the relative viability ([2]; first compound 0.4 µM) was 0.744, the relative viability ([2]; first compound 1.265 µM) was 0.635 and the relative viability ([3]; first compound 0.04 µM) was 0.949. For the same compound, the relative viability ([3]; first compound 0.1265 µM) was 0.878, the relative viability ([3]; first compound 0.4 µM) was 0.699 and the relative viability ([3]; first compound 1.265 µM) was 0.656. It also gave a relative viability ([4]; first compound 0.04 µM) of 0.368, a relative viability ([4]; first compound 0.1265 µM) of 0.531 and a relative viability ([4]; first compound 0.4 µM) of 0.394. The relative viability ([4]; first compound 1.265 µM) was 0.403, the relative viability ([5]; first compound 0.04 µM) was 0.991 and the relative viability ([5]; first compound 0.1265 µM) was 1.19. For the same compound, the relative viability ([5]; first compound 0.4 µM) was 1.31, the relative viability ([5]; first compound 1.265 µM) was 1.18 and the relative viability ([6]; first compound 0.04 µM) was 0.791. It also gave a relative viability ([6]; first compound 0.1265 µM) of 0.844, a relative viability ([6]; first compound 0.4 µM) of 0.588 and a relative viability ([6]; first compound 1.265 µM) of 0.575. For the same compound, the relative viability ([7]; first compound 0.04 µM) was 0.831, the relative viability ([7]; first compound 0.1265 µM) was 0.652 and the relative viability ([7]; first compound 0.4 µM) was 0.745. It also gave a relative viability ([7]; first compound 1.265 µM) of 0.291, a relative viability ([8]; first compound 0.04 µM) of 0.372 and a relative viability ([8]; first compound 0.1265 µM) of 0.913. The relative viability ([8]; first compound 0.4 µM) was 0.815, the relative viability ([8]; first compound 1.265 µM) was 0.75 and the relative viability ([9]; first compound 0.04 µM) was 0.721. It also gave a relative viability ([9]; first compound 0.1265 µM) of 0.91, a relative viability ([9]; first compound 0.4 µM) of 0.73 and a relative viability ([9]; first compound 1.265 µM) of 0.668. It also gave a relative viability ([10]; first compound 0.04 µM) of 0.777, a relative viability ([10]; first compound 0.1265 µM) of 0.758 and a relative viability ([10]; first compound 0.4 µM) of 0.779. For the same compound, the relative viability ([10]; first compound 1.265 µM) was 0.76, the relative viability ([11]; first compound 0.04 µM) was 0.694 and the relative viability ([11]; first compound 0.1265 µM) was 0.606. For the same compound, the relative viability ([11]; first compound 0.4 µM) was 0.594, the relative viability ([11]; first compound 1.265 µM) was 0.48 and the relative viability ([12]; first compound 0.04 µM) was 0.642. It also gave a relative viability ([12]; first compound 0.1265 µM) of 0.842, a relative viability ([12]; first compound 0.4 µM) of 0.831 and a relative viability ([12]; first compound 1.265 µM) of 0.603. It also gave a relative viability ([13]; first compound 0.04 µM) of 0.647, a relative viability ([13]; first compound 0.1265 µM) of 0.753 and a relative viability ([13]; first compound 0.4 µM) of 0.694. The relative viability ([13]; first compound 1.265 µM) was 0.615, the relative viability ([14]; first compound 0.04 µM) was 0.421 and the relative viability ([14]; first compound 0.1265 µM) was 0.575. The relative viability ([14]; first compound 0.4 µM) was 0.449, the relative viability ([14]; first compound 1.265 µM) was 0.391 and the relative viability ([15]; first compound 0.04 µM) was 0.912. It also gave a relative viability ([15]; first compound 0.1265 µM) of 0.942, a relative viability ([15]; first compound 0.4 µM) of 0.773 and a relative viability ([15]; first compound 1.265 µM) of 0.921. It also gave a relative viability ([16]; first compound 0.04 µM) of 0.762, a relative viability ([16]; first compound 0.1265 µM) of 0.806 and a relative viability ([16]; first compound 0.4 µM) of 0.797. For the same compound, the relative viability ([16]; first compound 1.265 µM) was 0.745, the relative viability ([17]; first compound 0.04 µM) was 0.558 and the relative viability ([17]; first compound 0.1265 µM) was 0.49. For the same compound, the relative viability ([17]; first compound 0.4 µM) was 0.568, the relative viability ([17]; first compound 1.265 µM) was 0.405 and the relative viability ([18]; first compound 0.04 µM) was 0.684. For the same compound, the relative viability ([18]; first compound 0.1265 µM) was 0.763, the relative viability ([18]; first compound 0.4 µM) was 0.736 and the relative viability ([18]; first compound 1.265 µM) was 0.441. For the same compound, the relative viability ([19]; first compound 0.04 µM) was 0.532, the relative viability ([19]; first compound 0.1265 µM) was 0.525 and the relative viability ([19]; first compound 0.4 µM) was 0.501. It also gave a relative viability ([19]; first compound 1.265 µM) of 0.479, a relative viability ([20]; first compound 0.04 µM) of 0.842 and a relative viability ([20]; first compound 0.1265 µM) of 0.814. The relative viability ([20]; first compound 0.4 µM) was 0.531, the relative viability ([20]; first compound 1.265 µM) was 0.326 and the relative viability ([21]; first compound 0.04 µM) was 0.793. The relative viability ([21]; first compound 0.1265 µM) was 0.717, the relative viability ([21]; first compound 0.4 µM) was 0.684 and the relative viability ([21]; first compound 1.265 µM) was 0.364. For the same compound, the relative viability ([22]; first compound 0.04 µM) was 0.822, the relative viability ([22]; first compound 0.1265 µM) was 0.84 and the relative viability ([22]; first compound 0.4 µM) was 0.793. The relative viability ([22]; first compound 1.265 µM) was 0.742.
